Data reported in ChEMBL document CHEMBL2057199, “Development of novel M1 antagonist scaffolds through the continued optimization of the MLPCN probe ML012” (Bioorg Med Chem Lett, 2012).
Activity calls are given as the source filed them. The calls are words filed in the database; no cut-off is given here.

Assays:
[1] = target: T1, Muscarinic acetylcholine receptor M1 (Homo sapiens, UniProt P11229); test: (§1) Antagonist activity at human muscarinic M1 receptor expressed in CHO cells assessed as inhibition of acetylcholine-induced calcium mobilization by fluorescence analysis; assay type: functional, cell-based
T1 sequence (P11229 whole entry): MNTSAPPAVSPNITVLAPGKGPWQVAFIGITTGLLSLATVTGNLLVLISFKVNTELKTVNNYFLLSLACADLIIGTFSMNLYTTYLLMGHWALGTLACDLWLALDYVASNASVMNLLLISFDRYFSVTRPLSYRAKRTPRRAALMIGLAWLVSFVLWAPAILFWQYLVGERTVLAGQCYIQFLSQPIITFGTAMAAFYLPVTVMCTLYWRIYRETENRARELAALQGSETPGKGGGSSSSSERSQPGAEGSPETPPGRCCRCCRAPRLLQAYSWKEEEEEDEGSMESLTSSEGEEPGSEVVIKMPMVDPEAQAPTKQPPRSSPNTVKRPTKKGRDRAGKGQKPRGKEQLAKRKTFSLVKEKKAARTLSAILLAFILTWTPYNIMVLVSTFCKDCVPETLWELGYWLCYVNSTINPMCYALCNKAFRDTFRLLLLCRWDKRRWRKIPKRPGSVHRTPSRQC

[2] = target: T2, Muscarinic acetylcholine receptor M1 (Homo sapiens) (UniProt P11229); test: Antagonist activity at human muscarinic M1 receptor expressed in CHO cells assessed as inhibition of acetylcholine-induced calcium mobilization at 30 uM measured after 15 mins by fluorescence analysis; assay type: functional, cell-based; parameters: scale not given: the % may be the effect or the level left
T2 sequence (whole entry): T1 sequence (P11229 whole entry)

[3] = target: T3, Muscarinic acetylcholine receptor M2 (Homo sapiens, UniProt P08172); test: Antagonist activity at human muscarinic M2 receptor assessed as inhibition of acetylcholine-induced calcium mobilization; assay type: functional
T3 sequence (P08172 whole entry): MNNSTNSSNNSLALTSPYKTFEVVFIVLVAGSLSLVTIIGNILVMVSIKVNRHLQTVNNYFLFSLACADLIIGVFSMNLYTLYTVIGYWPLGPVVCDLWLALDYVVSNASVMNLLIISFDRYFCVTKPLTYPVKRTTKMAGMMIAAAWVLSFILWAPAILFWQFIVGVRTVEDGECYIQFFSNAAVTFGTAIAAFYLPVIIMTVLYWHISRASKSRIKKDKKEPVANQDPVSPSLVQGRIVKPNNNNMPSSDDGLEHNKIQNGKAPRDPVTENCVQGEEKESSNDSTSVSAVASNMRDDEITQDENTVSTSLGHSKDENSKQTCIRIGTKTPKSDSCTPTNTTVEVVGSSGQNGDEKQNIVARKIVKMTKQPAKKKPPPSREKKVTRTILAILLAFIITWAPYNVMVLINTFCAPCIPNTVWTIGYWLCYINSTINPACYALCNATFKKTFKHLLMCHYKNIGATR

[4] = target: T4, Muscarinic acetylcholine receptor M4 (Homo sapiens, UniProt P08173); test: Antagonist activity at human muscarinic M4 receptor assessed as inhibition of acetylcholine-induced calcium mobilization; assay type: functional
T4 sequence (P08173 whole entry): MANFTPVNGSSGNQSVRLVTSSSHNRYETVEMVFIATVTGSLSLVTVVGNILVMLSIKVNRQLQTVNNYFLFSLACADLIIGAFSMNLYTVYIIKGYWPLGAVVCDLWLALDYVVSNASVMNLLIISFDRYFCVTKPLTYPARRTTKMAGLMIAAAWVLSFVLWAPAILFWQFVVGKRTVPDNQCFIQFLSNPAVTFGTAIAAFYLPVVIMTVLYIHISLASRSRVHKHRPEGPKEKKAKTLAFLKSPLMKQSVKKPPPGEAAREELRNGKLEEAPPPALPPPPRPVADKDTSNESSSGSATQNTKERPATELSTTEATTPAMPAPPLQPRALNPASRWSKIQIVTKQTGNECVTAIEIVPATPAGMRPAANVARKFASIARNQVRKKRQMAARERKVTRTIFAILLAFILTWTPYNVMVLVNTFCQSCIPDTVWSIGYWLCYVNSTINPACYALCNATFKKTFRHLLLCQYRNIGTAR

[5] = target: Muscarinic acetylcholine receptor M3 (Homo sapiens, UniProt P20309); test: Antagonist activity at human muscarinic M3 receptor assessed as inhibition of acetylcholine-induced calcium mobilization; assay type: functional
[6] = target: T5, Muscarinic acetylcholine receptor M5 (Homo sapiens, UniProt P08912); test: Antagonist activity at human muscarinic M5 receptor assessed as inhibition of acetylcholine-induced calcium mobilization; assay type: functional
T5 sequence (P08912 whole entry): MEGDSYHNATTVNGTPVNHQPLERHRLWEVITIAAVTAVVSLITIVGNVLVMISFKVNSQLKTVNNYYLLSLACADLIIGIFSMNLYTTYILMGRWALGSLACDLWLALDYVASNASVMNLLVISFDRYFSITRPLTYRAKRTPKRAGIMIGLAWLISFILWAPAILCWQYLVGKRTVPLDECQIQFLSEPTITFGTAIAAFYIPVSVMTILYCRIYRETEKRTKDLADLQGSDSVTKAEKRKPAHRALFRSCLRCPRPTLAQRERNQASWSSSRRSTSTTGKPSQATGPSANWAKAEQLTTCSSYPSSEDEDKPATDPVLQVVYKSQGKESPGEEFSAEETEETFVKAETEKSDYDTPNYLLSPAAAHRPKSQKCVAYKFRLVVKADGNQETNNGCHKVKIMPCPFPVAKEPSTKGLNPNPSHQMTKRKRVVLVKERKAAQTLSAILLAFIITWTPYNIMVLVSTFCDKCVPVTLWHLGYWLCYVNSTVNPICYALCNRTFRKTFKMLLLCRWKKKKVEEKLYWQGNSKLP

[7] = target: T2, Muscarinic acetylcholine receptor M1 (Homo sapiens); test: Antagonist activity at human muscarinic M1 receptor assessed as rightward shift in acetylcholine concentration response curve; assay type: functional
[8] = target: T2, Muscarinic acetylcholine receptor M1 (Homo sapiens); test: Displacement of [3H]NMS from human muscarinic M1 receptor
[9] = target: T2, Muscarinic acetylcholine receptor M1 (Homo sapiens); test: as §1; assay type: functional, cell-based

Muscarinic acetylcholine receptor M3, sequence (P20309 whole entry): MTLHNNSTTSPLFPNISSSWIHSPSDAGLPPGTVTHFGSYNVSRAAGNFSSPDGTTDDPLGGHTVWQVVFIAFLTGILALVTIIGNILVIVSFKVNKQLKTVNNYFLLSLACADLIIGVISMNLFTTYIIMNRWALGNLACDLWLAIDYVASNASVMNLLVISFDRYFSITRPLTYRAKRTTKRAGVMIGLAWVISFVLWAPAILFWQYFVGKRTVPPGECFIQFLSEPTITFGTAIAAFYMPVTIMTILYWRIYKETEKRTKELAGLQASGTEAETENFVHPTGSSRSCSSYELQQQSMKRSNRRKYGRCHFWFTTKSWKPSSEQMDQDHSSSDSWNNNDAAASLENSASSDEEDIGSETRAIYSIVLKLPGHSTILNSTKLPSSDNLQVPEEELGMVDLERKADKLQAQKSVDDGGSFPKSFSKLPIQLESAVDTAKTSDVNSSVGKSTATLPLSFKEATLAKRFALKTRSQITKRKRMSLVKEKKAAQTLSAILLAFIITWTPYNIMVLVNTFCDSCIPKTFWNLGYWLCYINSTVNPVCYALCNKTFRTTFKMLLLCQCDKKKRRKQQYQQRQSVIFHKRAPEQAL

| IC50 ([1]; read-out: IC50) [nM] | Activity [2] [%] | Structure (SMILES) | also measured |
| --- | --- | --- | --- |
| 500 | 5.7 | O=C(C1CN(S(=O)(=O)c2ccc(Cl)nc2)C1)N1CCN(c2ccncc2)CC1 |  |
|  | 12.7 | O=C(C1CN(S(=O)(=O)c2cccc3c(Cl)nc(Cl)cc23)C1)N1CCN(c2ccncc2)CC1 |  |
|  | 16.2 | O=C(C1CN(S(=O)(=O)c2cccc3nsnc23)C1)N1CC2CN(c3ccncc3)CC2C1 (stereo not drawn) |  |
| > 10000 | 33 | O=C(C1CN(S(=O)(=O)c2ccc3cn[nH]c3c2)C1)N1CCN(c2ccncc2)CC1 |  |
| > 10000 | 38.5 | O=C(C1CN(S(=O)(=O)c2ccc(Cl)cn2)C1)N1CCN(c2ccncc2)CC1 |  |
| > 10000 | 20.6 | COc1ccc(S(=O)(=O)N2CC(C(=O)N3CCN(c4ccncc4)CC3)C2)cn1 |  |
| > 10000 | 40.7 | O=C(C1CN(S(=O)(=O)c2ccc(C(F)(F)F)nc2)C1)N1CCN(c2ccncc2)CC1 |  |
|  | 8 | O=C(C1CN(S(=O)(=O)c2ccc3ncccc3c2)C1)N1CCN(c2ccncc2)CC1 |  |
|  | 4.9 | Cc1cc(S(=O)(=O)N2CC(C(=O)N3CCN(c4ccncc4)CC3)C2)cnc1Cl |  |
| 1700 | 9.5 | O=C(C1CN(S(=O)(=O)c2cccc(F)c2)C1)N1CCN(c2ccncc2)CC1 |  |
|  | 20.7 | O=C(C1CN(S(=O)(=O)c2cccc(Cl)c2)C1)N1CCN(c2ccncc2)CC1 |  |
| 430 |  | O=C(C1CN(S(=O)(=O)c2cccc3nonc23)C1)N1CCN(c2ccncc2)CC1 |  |
| 2300 | 15.3 | Cc1noc(C)c1S(=O)(=O)N1CC(C(=O)N2CCN(c3ccncc3)CC2)C1 |  |
| 180 | 3.6 | O=C(C1CN(S(=O)(=O)c2cccc3cnccc23)C1)N1CCN(c2ccnc(Cl)c2)CC1 |  |
| 740 | 3.5 | O=C(C1CN(S(=O)(=O)c2cccc3c(Cl)nccc23)C1)N1CCN(c2ccncc2)CC1 |  |
|  | 11.4 | O=C(C1CN(S(=O)(=O)c2cccc(Cl)c2F)C1)N1CCN(c2ccncc2)CC1 |  |
| > 10000 | 25.8 | O=C(C1CN(S(=O)(=O)c2cccc3ncccc23)C1)N1CC2CN(c3ccncc3)CC2C1 (stereo not drawn) |  |
| 510 | 7.3 | Cc1cnccc1N1CCN(C(=O)C2CN(S(=O)(=O)c3cccc4cnccc34)C2)CC1 |  |
|  | 8.8 | O=C(C1CN(S(=O)(=O)c2cccc3ncccc23)C1)N1CCN(c2ccncc2)CC1 |  |
|  | 7.3 | O=C(C1CN(S(=O)(=O)c2cccc3cnccc23)C1)N1CCN(c2ccncn2)CC1 |  |
| 370 | 4.9 | O=C(C1CN(S(=O)(=O)c2cccnc2)C1)N1CCN(c2ccncc2)CC1 |  |
| 1200 | 12.3 | Cn1cc(S(=O)(=O)N2CC(C(=O)N3CCN(c4ccncc4)CC3)C2)cn1 |  |
| 840 | 3.5 | O=C(C1CN(S(=O)(=O)c2cccc(Cl)c2Cl)C1)N1CCN(c2ccncc2)CC1 |  |

| IC50 ([1]; read-out: IC50) [nM] | Activity [2] [%] | Structure (SMILES) | also measured |
| --- | --- | --- | --- |
| 110 | 3.1 | Cc1cc(N2CCN(C(=O)C3CN(S(=O)(=O)c4cccc5cnccc45)C3)CC2)ccn1 |  |
| > 10000 | 33.4 | O=C(C1CCCN(S(=O)(=O)c2cccc3nsnc23)C1)N1CCN(c2ccncc2)CC1 (racemic) |  |
| 2200 | 10.1 | O=C(C1CN(S(=O)(=O)c2cccc3nsnc23)C1)N1CCN(c2ccncc2)CC1 | IC50 ([1]; read-out: pIC50 (converted)): 2090 nM |
| 1900 | 13.5 | O=C(C1CN(S(=O)(=O)c2cccc3c2OCO3)C1)N1CC2CN(c3ccncc3)CC2C1 (stereo not drawn) |  |
| 690 | 4.7 | Cc1cc(N2CCN(C(=O)C3CN(S(=O)(=O)c4cccc5cnccc45)C3)CC2)cc(C)n1 |  |
| 2500 | 8.4 | O=C(C1CN(S(=O)(=O)c2ccccc2OC(F)(F)F)C1)N1CCN(c2ccncc2)CC1 |  |
|  | 14.8 | Cc1cc2c(S(=O)(=O)N3CC(C(=O)N4CC5CN(c6ccncc6)CC5C4)C3)cccc2cn1 (stereo not drawn) |  |
| 3200 | 18.9 | O=C(C1CN(S(=O)(=O)c2cccc(F)c2)C1)N1CC2CN(c3ccncc3)CC2C1 (stereo not drawn) |  |
|  |  | O=C(C1CCN(S(=O)(=O)c2cccc3nsnc23)CC1)N1CCN(c2ccncc2)CC1 | IC50 ([1]; cho): Not Active |
| 1500 | 9.9 | O=C(C1CN(S(=O)(=O)c2cccnc2Cl)C1)N1CC2CN(c3ccncc3)CC2C1 (stereo not drawn) |  |
| > 10000 | 47.1 | O=C(C1CCN(S(=O)(=O)c2cccc3nsnc23)C1)N1CCN(c2ccncc2)CC1 (racemic) |  |
|  | 2.7 | O=C(C1CN(S(=O)(=O)c2cccc3cnccc23)C1)N1CCN(c2ccncc2)CC1 | IC50 [3]: > 10000 nM; IC50 [4]: > 10000 nM; IC50 [5]: > 10000 nM; IC50 [6]: > 10000 nM |
| 2000 | 12.6 | O=C(C1CN(S(=O)(=O)c2cccc3nonc23)C1)N1CC2CN(c3ccncc3)CC2C1 (stereo not drawn) |  |
| 1300 | 8.2 | O=C(C1CN(S(=O)(=O)c2cccnc2Cl)C1)N1CCN(c2ccncc2)CC1 |  |
| 2300 | 10.5 | O=C(C1CN(S(=O)(=O)c2ccc3occc3c2)C1)N1CCN(c2ccncc2)CC1 |  |
|  | 5.3 | O=C(C1CN(S(=O)(=O)c2ccc3c(c2)OCO3)C1)N1CCN(c2ccncc2)CC1 | Activity [7]: Active; Activity [8]: Active; inhibition [9]: Dose-dependent effect |
| 1600 | 6 | O=C(C1CN(S(=O)(=O)c2cccc3cnc(Cl)cc23)C1)N1CCN(c2ccncc2)CC1 |  |
|  | 6.6 | O=C(C1CN(S(=O)(=O)c2cccc(Cl)c2Cl)C1)N1CC2CN(c3ccncc3)CC2C1 (stereo not drawn) |  |
| 130 | 3.6 | O=C(C1CN(S(=O)(=O)c2ccc3c(c2)CCO3)C1)N1CCN(c2ccncc2)CC1 |  |
| > 10000 | 41.3 | Cc1ccnc(S(=O)(=O)N2CC(C(=O)N3CCN(c4ccncc4)CC3)C2)c1 |  |
| 2500 | 12.7 | Cc1nc(C(F)(F)F)c(S(=O)(=O)N2CC(C(=O)N3CCN(c4ccncc4)CC3)C2)s1 |  |
|  | 9.8 | Cc1cc2c(S(=O)(=O)N3CC(C(=O)N4CCN(c5ccncc5)CC4)C3)cccc2cn1 |  |
